Laboratory results published in paper PMC12860872, “Preclinical evaluation of DOTAGA.Glu.(FAPI)2 and DO3A.Glu.(FAPI)2 as theranostics with human dosimetry extrapolation to lutetium-177 and terbium-161 analogs” (European Journal of Nuclear Medicine and Molecular Imaging, 2025).
Where “and” joins values, the source holds several entries; their conditions need not be identical. Equal values may be shown once.

Columns and labels:
[1] = Blood clearance kinetics in healthy mice; assay type: in vivo, mouse; details: i.v., Two-Phase Decay Model
Description: Blood samples were collected from the facial vein at 1, 3, 5, 7, 10, 15, 20, 30, 45, 60, 240, and 1440 min p.i., weighed, and measured for radioactivity using a γ-counter. Results were expressed as % I.A./g of blood and plotted over time. The initial and terminal half-lives were determined using Two-Phase Decay Model. The biological half-lives of selected organs were calculated from the biodistribution data using One-Phase Decay Model (GraphPad Prism 8).

[2] = test system: PC3-mice; assay: Dosimetry in mice (nTACs, effective half-lives, TIAC/g); assay type: in vivo, mouse; details: for Effective half life: Tumor: nTACs
Description: (n = 3). The %I.A./g of tissue was calculated for liver, lungs, stomach, spleen, pancreas, kidneys, intestines, bone, muscle, salivary glands, heart wall, blood, tumor. To estimate the absolute activity in each source organ, the individual %I.A./g values were multiplied by the corresponding organ mass derived from the standard 25 g MOBY mouse phantom, yielding in the normalized source organ activities (nA) per time point and animal.
Following Cicone et al., the nA values for source organs were corrected to account for the fraction of administered activity sequestered by the tumor, as described in more detail in the dosimetry section of the supplemental data. According to the MIRD formalism, time-integrated activity coefficients (TIACs) were derived by integrating the normalized time-activity curves (nTACs), which were fitted using the bi-exponential functions. TIACs were calculated by fitting the nTACs with the bi-exponential functions and performing time integration in MATLAB. Additionally, mass-normalized TIACs (TIAC/g) were derived using organ masses from the standard 25 g MOBY mouse phantom (Supplemental data).
Biodistribution kinetics for [177Lu]Lu-DOTAGA.Glu.(FAPI)2 and [177Lu]Lu-DO3A.Glu.(FAPI)2 were assessed by ex vivo quantification of the accumulated radioactivity in source organs using a calibrated gamma counter at 4, 24, 48, 72, and 96 hours p.i. (n=3). The percentage of injected activity per gram of tissue (%I.A./g) was calculated, as described above, for a comprehensive panel of tissues, including liver, lungs, stomach, spleen, pancreas, kidneys, intestines, bone, muscle, salivary glands, heart wall, blood, and tumor. To estimate the absolute activity in each source organ, the individual %I.A./g values was multiplied by the corresponding organ mass derived from the standard 25 g MOBY mouse phantom, which provides high-resolution anatomical reference data for the murine models (28). […] The actual activity measurements were referred to the gamma counter measurement time (i.e. no physical decay correction to the administration time was applied). For each organ and time point, the mean nA was subsequently calculated across the three animals.
As outlined by Cicone et al., (1) the nA values for source organs were corrected to account for the fraction of administered activity sequestered by the tumor by redistributing the tumor nA (nAtumor) to organs according to the formula: […]
Where nAWB is the nA measured in the whole body. This adjustment was implemented to facilitate the extrapolation of absorbed dose data from mice to humans, considering that the tumor "sink effect" - prominent in murine models - is generally negligible in human subjects. In radiopharmaceutical dosimetry using tumor-bearing mice, the “tumor sink” effect refers to the phenomenon where large or highly avid tumors absorb a significant portion of the injected radiotracer, reducing its availability to normal organs. This can lead to artificially low uptake measurements in healthy tissues, which may not reflect what would occur in humans with smaller tumors or lower tumor burden. To correct for this, dosimetry calculations often include a "tumor sink correction" that adjusts normal organ uptake values to account for the radiotracer sequestered by the tumor, ensuring more accurate and clinically relevant dose estimates.
According to the MIRD formalism, for each source organ, time-integrated activity coefficients (TIACs) were derived by integrating the normalized time-activity curves (nTACs), which were fitted using the bi-exponential functions. The integration of the fitted nTACs was extended to infinity for organs in which the effective half-life of the slower bi-exponential component (tslow) was shorter than the physical half-life of lutetium-177 (tslow < tphys). […]

[3] = test system: FAP+ CAFs; assay: Externalization from CAFs; assay type: cell-based, human; details: after 24 h at 37 °C
Description: For receptor saturation studies, FAP^+ CAFs were incubated with 0.1 to 10 nM of the radioligands. For internalization studies, approximately 2.5 pmol of the radioligands were added to CAFs followed by incubation for 15, 30, 60, 90, 120, 180 and 240 min for the ^68Ga-labeled or 30, 60, 120, 240 and 360 min for the ^177Lu-labeled radioligands at 37 °C, 5% CO2. For the externalization studies, approximately 2.5 pmol of the ^177Lu-labeled radioligands were added to CAFs followed by incubation for 2 h at 37 °C, 5% CO2. The amount of externalized activity was measured at 0, 10, 20, 30, 60, 120, 240, and 1440 min (Supplemental Data).
After the completion of the 2 hours of incubation, the medium was removed and CAF cells were washed with 1 mL of cold PBS (x2). The cells were then exposed to an acid wash with glycine buffer, as described above, to dissociate membrane-bound radioligand, and the fractions were collected. Fresh medium (1 mL/well) was added to the cells and were incubated at 37 °C. At different time points (10, 20, 30, 60, 120, 240 and 1440 minutes) the external medium was removed (followed by two washing steps with cold PBS). […] The radioactivity of the culture medium, the membrane-bound, the internalized and the externalized fractions were measured in a gamma-counter. The externalized fraction of radioactivity was expressed as the percentage of the total internalized amount.

[4] = PC3-mice, nTACs corrected for tumor sink

| Structure (SMILES) | Blood half life (initial) [1] [min] | Blood half life (terminal) [1] | TIAC/g Bones ([2]; Mouse) [h/g] | TIAC/g Heart contents ([2]; Mouse) [h/g] | TIAC/g Kidneys ([2]; Mouse) [h/g] | TIAC/g Liver ([2]; Mouse) [h/g] | TIAC/g Pancreas ([2]; Mouse) [h/g] | TIAC/g Rest of the body ([2]; Mouse) [h/g] | TIAC/g Salivary glands ([2]; Mouse) [h/g] | TIAC/g Tumor ([2]; Mouse) [h/g] | Effective half life: Tumor ([2]; PC3-mice) [h] | Effective half life: Bones [2, 4] [h] | Effective half life: Heart content [2, 4] [h] | Effective half life: Kidney [2, 4] [h] | Effective half life: Lung [2, 4] [h] | Effective half life: Pancreas [2, 4] [h] | Effective half life: Salivary glands [2, 4] [h] | Effective half life: Small Intestine [2, 4] [h] | initially internalized activity released [3] | further results |
| --- | --- | --- | --- | --- | --- | --- | --- | --- | --- | --- | --- | --- | --- | --- | --- | --- | --- | --- | --- | --- |
| N#C[C@@H]1CC(F)(F)CN1C(=O)CNC(=O)c1ccnc2ccc(OCCCCNC(=O)CC[C@H](NC(=O)CN3CCN(CC(=O)[O-])CCN(CC(=O)[O-])CCN(CC(=O)[O-])CC3)C(=O)NCCCCOc3ccc4nccc(C(=O)NCC(=O)N5CC(F)(F)C[C@H]5C#N)c4c3)cc12.[177Lu+3] [[^177Lu]Lu-DO3A.Glu.(FAPI)2] | 1.3 | 4.172 h and 4.17 h | 3.82 ± 0.12 | 0.12 ± 0.003 | 0.20 ± 0.01 | 3.47 ± 0.14 | 0.20 ± 0.01 | 10.77 ± 0.32 | 0.25 ± 0.02 | 1.61 ± 0.2 | 51 ± 12.6 | 23.3 ± 1.4 | 12.8 ± 0.4 | 22.3 ± 7.1 | 18.3 ± 4.4 | 14.1 ± 3.2 | 11.8 ± 5.9 | 16.2 ± 4.5 | ~ 46% | Effective half life: Liver [2, 4]: 70.4 ± 2.9 h |
| N#C[C@@H]1CC(F)(F)CN1C(=O)CNC(=O)c1ccnc2ccc(OCCCCNC(=O)CC[C@H](NC(=O)CCC(C(=O)O)N3CCN(CC(=O)[O-])CCN(CC(=O)[O-])CCN(CC(=O)[O-])CC3)C(=O)NCCCCOc3ccc4nccc(C(=O)NCC(=O)N5CC(F)(F)C[C@H]5C#N)c4c3)cc12.[177Lu+3] (stereo partly shown) [[^177Lu]Lu-DOTAGA.Glu.(FAPI)2] | 2.8 | 4.692 h and 4.7 h | 6.65 ± 0.39 | 0.11 ± 0.005 | 0.39 ± 0.02 | 9.65 ± 0.82 | 0.29 ± 0.01 | 10.75 ± 0.68 | 0.36 ± 0.01 | 1.19 ± 0.16 | 39.1 ± 1.1 | 30.9 ± 0.5 | 12.5 ± 0.1 | 50.1 ± 3.1 | 19.9 ± 0.6 | 40 ± 14.2 | 52.1 ± 14.9 | 25.4 ± 0.9 | ~ 40% | Liver TIAC/g, times higher than for [177Lu]Lu-DO3A.Glu.(FAPI)2 ([2]; Mouse): 2.7 times |
